Experiments:
[1] = system: S. pneumoniae D39V; test: Bliss interaction score (quartile over a dose matrix) (fitness difference); higher = more antagonism (negative = synergy)
How it was run: (§1)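 Quartiles summarise the Bliss score over technical, biological and donor/recipient replicates, where the score is observed minus expected fitness under a product model. Expected fitness uses single-drug values inferred from combination data. Fitness is OD595 at entry into stationary phase over the plate's robust no-drug mean, capped at 1.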

[2] = system: S. aureus DSM 20231; test: as above
How it was run: as §1

[3] = system: S. aureus Newman; test: as above
How it was run: as §1

[4] = system: B. subtilis 168; test: as above
How it was run: as §1

[5] = system: S. pneumoniae D39V; test: fitness (endpoint OD595 vs no drug) (fraction); higher = more growth
How it was run: (§2)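 Background-subtracted growth curves were the basis for fitness, taken as the optical density at entry into stationary phase over the robust mean of no-drug control wells. A cap of 1 was applied. The curves came from OD595 readings every 30 min for 14 h at 37 °C, in 384-well plates seeded at OD595 0.01 with 30 µl, or 55 µl for S. pneumoniae.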

[6] = system: S. aureus Newman; test: as above
How it was run: as §2

[7] = system: B. subtilis 168; test: as above
How it was run: as §2

[8] = first compound 0.25 µg/mL, partner 1.25 µg/mL
[9] = first compound 0.25 µg/mL, partner 2.5 µg/mL
[10] = first compound 0.25 µg/mL, partner 5 µg/mL
[11] = first compound 0.5 µg/mL, partner 1.25 µg/mL
[12] = first compound 0.5 µg/mL, partner 2.5 µg/mL
[13] = first compound 0.5 µg/mL, partner 5 µg/mL
[14] = first compound 2 µg/mL, partner 0.03125 µg/mL, main component drawn
[15] = first compound 2 µg/mL, partner 0.0625 µg/mL, main component drawn
[16] = first compound 2 µg/mL, partner 0.125 µg/mL, main component drawn
[17] = first compound 2 µg/mL, partner 0.25 µg/mL, main component drawn
[18] = first compound 2 µg/mL, partner 0.5 µg/mL, main component drawn
[19] = first compound 4 µg/mL, partner 0.03125 µg/mL, main component drawn
[20] = first compound 4 µg/mL, partner 0.0625 µg/mL, main component drawn
[21] = first compound 4 µg/mL, partner 0.25 µg/mL, main component drawn
[22] = first compound 4 µg/mL, partner 0.5 µg/mL, main component drawn
[23] = first compound 8 µg/mL, partner 0.03125 µg/mL, main component drawn
[24] = first compound 8 µg/mL, partner 0.0625 µg/mL, main component drawn
[25] = first compound 8 µg/mL, partner 0.25 µg/mL, main component drawn
[26] = first compound 8 µg/mL, partner 0.5 µg/mL, main component drawn
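For Bliss interaction score (quartile over a dose matrix) in this document: first quartile when negative (synergy) and third quartile when positive (antagonism).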

`CC1=C(C(=O)O)N2C(=O)[C@@H](NC(=O)[C@H](N)c3ccccc3)[C@H]2SC1` [Cephalexin] + CN1C2=CC=CC=C2N=C3C1=CC=CC3=O [Pyocyanin] gave a Bliss interaction score [1] of 0.0919, a Bliss interaction score [2] of 0.0604 and a Bliss interaction score [3] of 0.0862. It also gave a Bliss interaction score [4] of -0.0454, a fitness ([5]; first compound 0.125 µg/mL, partner 0.325 µg/mL, one replicate) of 0.976 and a fitness ([5]; first compound 0.125 µg/mL, partner 0.65 µg/mL, one replicate) of 0.933. For the same compound, the fitness ([5]; first compound 0.125 µg/mL, partner 1.3 µg/mL, one replicate) was 0.762, the fitness ([5]; first compound 0.25 µg/mL, partner 0.325 µg/mL, one replicate) was at least 1 and the fitness ([5]; first compound 0.25 µg/mL, partner 0.65 µg/mL, one replicate) was at least 1. For the same compound, the fitness ([5]; first compound 0.25 µg/mL, partner 1.3 µg/mL, one replicate) was 0.805, the fitness ([5]; first compound 0.5 µg/mL, partner 0.325 µg/mL, one replicate) was at least 1 and the fitness ([5]; first compound 0.5 µg/mL, partner 0.65 µg/mL, one replicate) was at least 1. The fitness ([5]; first compound 0.5 µg/mL, partner 1.3 µg/mL, one replicate) was 0.822, the fitness ([5]; first compound 1 µg/mL, partner 0.325 µg/mL, one replicate) was 0.817 and the fitness ([5]; first compound 1 µg/mL, partner 0.65 µg/mL, one replicate) was 0.891. For the same compound, the fitness ([5]; first compound 2 µg/mL, partner 0.325 µg/mL, one replicate) was 0.328, the fitness ([5]; first compound 2 µg/mL, partner 0.65 µg/mL, one replicate) was 0.65 and the fitness ([5]; first compound 4 µg/mL, partner 0.325 µg/mL, one replicate) was 0.0365. The fitness ([5]; first compound 4 µg/mL, partner 0.65 µg/mL, one replicate) was 0.158, the fitness [6, 8] was 0.928 and the fitness [6, 9] was 0.905. The fitness [6, 10] was 0.604, the fitness [6, 11] was 0.92 and the fitness [6, 12] was 0.892. It also gave a fitness [6, 13] of 0.559, a fitness ([6]; first compound 1 µg/mL, partner 1.25 µg/mL) of 0.823 and a fitness ([7]; first compound 0.125 µg/mL, partner 1.25 µg/mL) of 0.923. The fitness ([7]; first compound 0.125 µg/mL, partner 2.5 µg/mL) was 0.874, the fitness ([7]; first compound 0.125 µg/mL, partner 5 µg/mL) was 0.719 and the fitness [7, 8] was 0.916. The fitness [7, 9] was 0.836, the fitness [7, 10] was 0.686 and the fitness [7, 11] was 0.881. It also gave a fitness [7, 12] of 0.823 and a fitness [7, 13] of 0.679.

`CNC(C)C1CCC(N)C(OC2C(N)CC(N)C(OC3OCC(C)(O)C(NC)C3O)C2O)O1` (stereo not drawn) [Gentamicin] + CN[C@H](CC(C)C)C(=O)N[C@H]1C(=O)N[C@@H](CC(N)=O)C(=O)N[C@H]2C(=O)N[C@H]3C(=O)N[C@H](C(=O)N[C@H](C(=O)O)c4cc(O)cc(O)c4-c4cc3ccc4O)[C@H](O)c3ccc(c(Cl)c3)Oc3cc2cc(c3O[C@@H]2O[C@H](CO)[C@@H](O)[C@H](O)[C@H]2O[C@H]2C[C@](C)(N)[C@H](O)[C@H](C)O2)Oc2ccc(cc2Cl)[C@H]1O [Vancomycin] showed a Bliss interaction score ([1]; main component drawn) of -0.0655, a Bliss interaction score ([2]; main component drawn) of 0.0984 and a Bliss interaction score ([3]; main component drawn) of 0.0347. The Bliss interaction score ([4]; main component drawn) was 0.0451, the fitness [5, 14] was 0.974 and the fitness [5, 15] was 0.949. For the same compound, the fitness [5, 16] was 0.891, the fitness [5, 17] was 0.0786 and the fitness [5, 18] was 0.0666. For the same compound, the fitness [5, 19] was at least 1, the fitness [5, 20] was 0.977 and the fitness ([5]; first compound 4 µg/mL, partner 0.125 µg/mL, main component drawn) was 0.922. It also gave a fitness [5, 21] of 0.0692, a fitness [5, 22] of 0.052 and a fitness [5, 23] of 0.98. For the same compound, the fitness [5, 24] was 0.952, the fitness ([5]; first compound 8 µg/mL, partner 0.125 µg/mL, main component drawn) was 0.925 and the fitness [5, 25] was 0.0847. It also gave a fitness [5, 26] of 0.0832, a fitness ([6]; first compound 0.375 µg/mL, partner 0.1875 µg/mL, one replicate, main component drawn) of at least 1 and a fitness ([6]; first compound 0.375 µg/mL, partner 0.375 µg/mL, one replicate, main component drawn) of at least 1. It also gave a fitness ([6]; first compound 0.375 µg/mL, partner 0.75 µg/mL, one replicate, main component drawn) of at least 1, a fitness ([6]; first compound 0.5 µg/mL, partner 0.1875 µg/mL, main component drawn) of 0.991 and a fitness ([6]; first compound 0.5 µg/mL, partner 0.375 µg/mL, main component drawn) of 0.981. The fitness ([6]; first compound 0.5 µg/mL, partner 0.75 µg/mL, main component drawn) was 0.999, the fitness ([6]; first compound 0.75 µg/mL, partner 0.1875 µg/mL, one replicate, main component drawn) was at least 1 and the fitness ([6]; first compound 0.75 µg/mL, partner 0.375 µg/mL, one replicate, main component drawn) was at least 1. The fitness ([6]; first compound 0.75 µg/mL, partner 0.75 µg/mL, one replicate, main component drawn) was at least 1, the fitness ([6]; first compound 1 µg/mL, partner 0.1875 µg/mL, main component drawn) was 0.988 and the fitness ([6]; first compound 1 µg/mL, partner 0.375 µg/mL, main component drawn) was 0.996. For the same compound, the fitness ([6]; first compound 1 µg/mL, partner 0.75 µg/mL, main component drawn) was at least 1, the fitness ([6]; first compound 1.5 µg/mL, partner 0.1875 µg/mL, one replicate, main component drawn) was 0.261 and the fitness ([6]; first compound 1.5 µg/mL, partner 0.375 µg/mL, one replicate, main component drawn) was 0.0474. For the same compound, the fitness ([6]; first compound 1.5 µg/mL, partner 0.75 µg/mL, one replicate, main component drawn) was 0.0659, the fitness ([6]; first compound 2 µg/mL, partner 0.375 µg/mL, main component drawn) was at least 1 and the fitness ([6]; first compound 2 µg/mL, partner 0.75 µg/mL, main component drawn) was at least 1.

In the case of `CNC(C)C1CCC(N)C(OC2C(N)CC(N)C(OC3OCC(C)(O)C(NC)C3O)C2O)O1` (stereo not drawn) [Gentamicin] + Cn1nnc(-c2ccc(-c3ccc(N4C[C@H](CO)OC4=O)cc3F)cn2)n1 [Tedizolid], the Bliss interaction score ([1]; main component drawn) was -0.112, the Bliss interaction score ([2]; main component drawn) was 0.0633 and the Bliss interaction score ([3]; main component drawn) was 0.0667. The Bliss interaction score ([4]; main component drawn) was 0.228, the fitness [5, 14] was 0.933 and the fitness [5, 15] was 0.964. The fitness [5, 16] was 0.687, the fitness [5, 17] was 0.259 and the fitness [5, 18] was 0.104. For the same compound, the fitness [5, 19] was 0.942, the fitness [5, 20] was 0.964 and the fitness [5, 21] was 0.211. For the same compound, the fitness [5, 22] was 0.105, the fitness [5, 23] was 0.933 and the fitness [5, 24] was 0.954. It also gave a fitness [5, 25] of 0.242, a fitness [5, 26] of 0.0993 and a fitness ([6]; first compound 0.375 µg/mL, partner 0.0625 µg/mL, main component drawn) of 0.965. It also gave a fitness ([6]; first compound 0.375 µg/mL, partner 0.125 µg/mL, main component drawn) of 0.862, a fitness ([6]; first compound 0.375 µg/mL, partner 0.25 µg/mL, main component drawn) of 0.176 and a fitness ([6]; first compound 0.5 µg/mL, partner 0.0625 µg/mL, main component drawn) of 0.938. It also gave a fitness ([6]; first compound 0.5 µg/mL, partner 0.125 µg/mL, main component drawn) of 0.934, a fitness ([6]; first compound 0.5 µg/mL, partner 0.25 µg/mL, main component drawn) of 0.605 and a fitness ([6]; first compound 0.75 µg/mL, partner 0.0625 µg/mL, main component drawn) of 0.969. The fitness ([6]; first compound 0.75 µg/mL, partner 0.125 µg/mL, main component drawn) was 0.771, the fitness ([6]; first compound 0.75 µg/mL, partner 0.25 µg/mL, main component drawn) was 0.131 and the fitness ([6]; first compound 1 µg/mL, partner 0.0625 µg/mL, main component drawn) was 0.949. It also gave a fitness ([6]; first compound 1 µg/mL, partner 0.125 µg/mL, main component drawn) of 0.907, a fitness ([6]; first compound 1.5 µg/mL, partner 0.25 µg/mL, main component drawn) of 0.15 and a fitness [6, 15] of 0.979. The fitness [6, 16] was 0.905 and the fitness [6, 17] was 0.702.
